In US8697739B2, “Bicyclic acetyl-CoA carboxylase inhibitors and uses thereof” (Novartis AG, priority 2010, dated 2014):

target: T1, human acetyl-CoA carboxylase 2 (ACC2) (Homo sapiens, UniProt O00763); assay: Acetyl-CoA carboxylase enzyme assay (malonyl-CoA formation by LC/MS/MS); format: biochemical; conditions: recombinant human ACC2 (aa 144-2458); read-out: IC50 ACC2
T1 construct: The cDNA encoding amino acids 144 to 2458 of human acetyl-CoA carboxylase 2; made in house; host or cells: Sf9 insect cells (baculovirus, pFastBac1)
T1 sequence (O00763 144-2458): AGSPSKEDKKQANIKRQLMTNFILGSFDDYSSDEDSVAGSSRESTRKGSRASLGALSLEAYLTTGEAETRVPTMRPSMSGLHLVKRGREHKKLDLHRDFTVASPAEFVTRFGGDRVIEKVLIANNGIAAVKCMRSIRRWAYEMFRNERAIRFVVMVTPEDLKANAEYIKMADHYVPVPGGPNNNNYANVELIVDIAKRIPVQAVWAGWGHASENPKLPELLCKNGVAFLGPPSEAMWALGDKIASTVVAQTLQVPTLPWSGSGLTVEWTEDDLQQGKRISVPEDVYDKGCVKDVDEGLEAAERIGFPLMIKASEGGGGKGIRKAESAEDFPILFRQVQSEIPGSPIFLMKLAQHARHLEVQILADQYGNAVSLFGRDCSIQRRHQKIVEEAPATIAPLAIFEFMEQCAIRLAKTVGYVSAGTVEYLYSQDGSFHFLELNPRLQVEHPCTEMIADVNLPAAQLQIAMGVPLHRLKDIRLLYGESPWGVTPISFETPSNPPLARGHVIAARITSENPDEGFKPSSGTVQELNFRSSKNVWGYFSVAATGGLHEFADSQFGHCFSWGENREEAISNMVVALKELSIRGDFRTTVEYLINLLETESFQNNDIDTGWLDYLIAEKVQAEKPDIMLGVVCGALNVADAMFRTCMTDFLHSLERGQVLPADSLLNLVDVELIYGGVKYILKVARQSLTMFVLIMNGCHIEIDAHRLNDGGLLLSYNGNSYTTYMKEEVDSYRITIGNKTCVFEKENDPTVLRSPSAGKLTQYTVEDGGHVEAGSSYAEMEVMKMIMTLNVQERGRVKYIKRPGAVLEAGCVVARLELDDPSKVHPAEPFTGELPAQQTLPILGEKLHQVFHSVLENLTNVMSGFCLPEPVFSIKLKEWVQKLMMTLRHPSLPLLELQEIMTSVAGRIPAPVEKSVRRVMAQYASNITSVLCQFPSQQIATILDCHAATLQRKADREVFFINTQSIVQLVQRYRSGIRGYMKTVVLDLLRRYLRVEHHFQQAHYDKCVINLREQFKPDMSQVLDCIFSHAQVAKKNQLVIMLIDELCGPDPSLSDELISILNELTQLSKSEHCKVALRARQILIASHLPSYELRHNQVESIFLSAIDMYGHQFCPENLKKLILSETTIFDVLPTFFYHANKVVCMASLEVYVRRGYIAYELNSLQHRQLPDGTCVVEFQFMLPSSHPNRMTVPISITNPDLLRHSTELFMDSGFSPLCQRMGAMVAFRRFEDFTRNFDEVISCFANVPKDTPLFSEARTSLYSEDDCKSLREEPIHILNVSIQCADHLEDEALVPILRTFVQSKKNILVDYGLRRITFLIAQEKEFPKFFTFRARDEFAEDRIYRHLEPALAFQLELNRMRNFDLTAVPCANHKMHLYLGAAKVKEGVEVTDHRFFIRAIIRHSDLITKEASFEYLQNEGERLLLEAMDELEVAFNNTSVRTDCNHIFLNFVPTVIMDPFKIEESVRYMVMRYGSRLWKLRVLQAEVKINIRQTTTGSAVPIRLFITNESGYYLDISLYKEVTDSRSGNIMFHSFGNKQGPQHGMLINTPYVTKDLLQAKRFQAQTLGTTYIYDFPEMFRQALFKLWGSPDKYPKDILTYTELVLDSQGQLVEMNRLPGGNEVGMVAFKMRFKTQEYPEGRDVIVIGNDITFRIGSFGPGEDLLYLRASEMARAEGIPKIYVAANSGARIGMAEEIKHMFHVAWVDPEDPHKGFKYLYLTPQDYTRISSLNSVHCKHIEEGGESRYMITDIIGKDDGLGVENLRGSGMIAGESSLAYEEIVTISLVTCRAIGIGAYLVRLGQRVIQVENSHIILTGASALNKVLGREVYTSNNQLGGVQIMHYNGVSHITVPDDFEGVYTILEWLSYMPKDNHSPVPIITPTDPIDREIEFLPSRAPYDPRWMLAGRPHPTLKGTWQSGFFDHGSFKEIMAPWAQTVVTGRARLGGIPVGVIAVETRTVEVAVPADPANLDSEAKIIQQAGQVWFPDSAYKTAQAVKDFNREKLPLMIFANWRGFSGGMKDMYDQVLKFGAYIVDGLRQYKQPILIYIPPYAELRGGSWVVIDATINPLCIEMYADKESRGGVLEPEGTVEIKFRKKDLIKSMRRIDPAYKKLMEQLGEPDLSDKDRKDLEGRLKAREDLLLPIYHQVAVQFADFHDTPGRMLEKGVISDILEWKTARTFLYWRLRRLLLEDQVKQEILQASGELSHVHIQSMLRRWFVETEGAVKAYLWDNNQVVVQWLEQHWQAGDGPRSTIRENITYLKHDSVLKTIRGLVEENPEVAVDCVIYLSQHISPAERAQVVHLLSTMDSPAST
Summary of the method: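 Malonyl-CoA formation was read by LC/MS/MS MRM against a [13C3]-malonyl-CoA internal standard, after acetic acid quench. The enzyme was baculovirus/Sf9-expressed human ACC2 residues 144–2458, given 15 minutes room-temperature compound preincubation in HEPES pH 7.5 buffer with MgCl2, citrate and DTT. Substrate solution held 50 μM acetyl-CoA, 120 μM ATP and 2 mM KHCO3.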

IC50	Structure (SMILES)
95 nM	Cn1c(-c2ccccc2)cc2ccc(S(=O)(=O)N[C@H]3CC[C@H](C(=O)N4CCC[C@@H]4CO)CC3)cc21 [Example 432, N-((1R,4r)-4-((R)-2-(hydroxymethyl)pyrrolidine-1-carbonyl)cyclohexyl)-1-methyl-2-phenyl-1H-indole-6-sulfonamide]
445 nM	Cn1c(-c2ccccc2)cc2ccc(S(=O)(=O)N[C@H]3CC[C@H](C(=O)N4CCC(O)C4)CC3)cc21 (stereo partly shown) [Example 433, N-((1r,4r)-4-(3-hydroxypyrrolidine-1-carbonyl)cyclohexyl)-1-methyl-2-phenyl-1H-indole-6-sulfonamide]
10 nM	CC(C)[C@H]1COCCN1C(=O)[C@H]1CC[C@H](NS(=O)(=O)c2ccc3cc(-c4ccccc4)n(C)c3c2)CC1 [Example 434, N-((1S,4r)-4-((S)-3-isopropylmorpholine-4-carbonyl)cyclohexyl)-1-methyl-2-phenyl-1H-indole-6-sulfonamide]
20 nM	Cn1c(-c2ccccc2)cc2ccc(S(=O)(=O)NC3CCC(C(=O)NC4CCCCNC4=O)CC3)cc21 (stereo not shown) [Example 435, (1r,4r)-4-(1-methyl-2-phenyl-1H-indole-6-sulfonamido)-N-(2-oxoazepan-3-yl)cyclohexanecarboxamide]
20 nM	COCc1ccc(-c2cc3ccc(S(=O)(=O)N[C@H]4CC[C@H](C(=O)N5CCOC[C@@H]5C)CC4)cc3[nH]2)cc1 [Example 436, 2-(4-(methoxymethyl)phenyl)-N-((1S,4r)-4-((S)-3-methylmorpholine-4-carbonyl)cyclohexyl)-1H-indole-6-sulfonamide]
40 nM	COCc1ccc(-c2cc3ccc(S(=O)(=O)N[C@H]4CC[C@H](C(=O)N5CCOC[C@@H]5C)CC4)cc3n2C)cc1 [Example 437, 2-(4-(methoxymethyl)phenyl)-1-methyl-N-((1S,4r)-4-((S)-3-methylmorpholine-4-carbonyl)cyclohexyl)-1H-indole-6-sulfonamide]
< 10 nM	COCc1ccc(-c2cc3ccc(S(=O)(=O)N[C@H]4CC[C@H](C(=O)N5CCOC[C@@H]5C(C)C)CC4)cc3n2C)cc1 [Example 438, N-((1S,4r)-4-((S)-3-isopropylmorpholine-4-carbonyl)cyclohexyl)-2-(4-(methoxymethyl)phenyl)-1-methyl-1H-indole-6-sulfonamide]
< 10 nM	Cn1c(-c2ccccc2)cc2ccc(S(=O)(=O)N[C@H]3CC[C@H](C(=O)N[C@@H](c4ccccc4)C(C)(C)CO)CC3)cc21 [Example 439, (1r,4S)-N-((S)-3-hydroxy-2,2-dimethyl-1-phenylpropyl)-4-(1-methyl-2-phenyl-1H-indole-6-sulfonamido)cyclohexanecarboxamide]
20 nM	COc1ccc(-c2cc3ccc(S(=O)(=O)N[C@H]4CC[C@H](C(=O)N5CCOC[C@@H]5C)CC4)cc3n2C)cc1 [Example 440, 2-(4-methoxyphenyl)-1-methyl-N-((1S,4r)-4-((S)-3-methylmorpholine-4-carbonyl)cyclohexyl)-1H-indole-6-sulfonamide]
< 10 nM	COc1ccc(-c2cc3ccc(S(=O)(=O)N[C@H]4CC[C@H](C(=O)N5CCOC[C@@H]5C(C)C)CC4)cc3n2C)cc1 [Example 441, N-((1S,4r)-4-((S)-3-isopropylmorpholine-4-carbonyl)cyclohexyl)-2-(4-methoxyphenyl)-1-methyl-1H-indole-6-sulfonamide]
40 nM	Cn1c(-c2ccccc2)cc2ccc(S(=O)(=O)N[C@H]3CC[C@H](C(=O)N4CCOC(C)(C)C4)CC3)cc21 [Example 442, N-((1r,4r)-4-(2,2-dimethylmorpholine-4-carbonyl)cyclohexyl)-1-methyl-2-phenyl-1H-indole-6-sulfonamide]
30 nM	Cn1c(-c2ccccc2)cc2ccc(S(=O)(=O)N[C@H]3CC[C@H](C(=O)N4CCC[C@@H]4C(C)(C)O)CC3)cc21 [Example 443, N-((1R,4r)-4-((R)-2-(2-hydroxypropan-2-yl)pyrrolidine-1-carbonyl)cyclohexyl)-1-methyl-2-phenyl-1H-indole-6-sulfonamide]
20 nM	COCCc1ccc(-c2cc3ccc(S(=O)(=O)N[C@H]4CC[C@H](C(=O)N5CCOC[C@@H]5C)CC4)cc3n2C)cc1 [Example 444, 2-(4-(2-methoxyethyl)phenyl)-1-methyl-N-((1S,4r)-4-((S)-3-methylmorpholine-4-carbonyl)cyclohexyl)-1H-indole-6-sulfonamide]
15 nM	COc1ccc(-c2cc3ccc(S(=O)(=O)N[C@H]4CC[C@H](C(=O)N[C@@H](CO)C5CC5)CC4)cc3n2C)cc1 [Example 445, (1r,4R)-N-((R)-1-cyclopropyl-2-hydroxyethyl)-4-(2-(4-methoxyphenyl)-1-methyl-1H-indole-6-sulfonamido)cyclohexanecarboxamide]
365 nM	Cn1c(C2CC2)cc2ccc(S(=O)(=O)N[C@H]3CC[C@H](C(=O)N[C@@H](CO)C4CC4)CC3)cc21 [Example 446, (1r,4R)-4-(2-cyclopropyl-1-methyl-1H-indole-6-sulfonamido)-N-((R)-1-cyclopropyl-2-hydroxyethyl)cyclohexanecarboxamide]
25 nM	COCCOc1ccc(-c2cc3ccc(S(=O)(=O)N[C@H]4CC[C@H](C(=O)N5CCOC[C@@H]5C(C)C)CC4)cc3n2C)cc1 [Example 447, N-((1S,4r)-4-((S)-3-isopropylmorpholine-4-carbonyl)cyclohexyl)-2-(4-(2-methoxyethoxy)phenyl)-1-methyl-1H-indole-6-sulfonamide]
65 nM	COCCOc1ccc(-c2cc3ccc(S(=O)(=O)N[C@H]4CC[C@H](C(=O)N5CCOC[C@@H]5C)CC4)cc3n2C)cc1 [Example 448, 2-(4-(2-methoxyethoxy)phenyl)-1-methyl-N-((1S,4r)-4-((S)-3-methylmorpholine-4-carbonyl)cyclohexyl)-1H-indole-6-sulfonamide]
75 nM	COCCOc1ccc(-c2cc3ccc(S(=O)(=O)N[C@H]4CC[C@H](C(=O)N[C@H](CO)C5CC5)CC4)cc3n2C)cc1 [Example 449, (1r,4S)-N-((S)-1-cyclopropyl-2-hydroxyethyl)-4-(2-(4-(2-methoxyethoxy)phenyl)-1-methyl-1H-indole-6-sulfonamido)cyclohexanecarboxamide]
130 nM	COCCOc1ccc(-c2cc3ccc(S(=O)(=O)N[C@H]4CC[C@H](C(=O)N5CCOC(C)(C)C5)CC4)cc3n2C)cc1 [Example 450, N-((1r,4r)-4-(2,2-dimethylmorpholine-4-carbonyl)cyclohexyl)-2-(4-(2-methoxyethoxy)phenyl)-1-methyl-1H-indole-6-sulfonamide]
80 nM	COCCOc1ccc(-c2cc3ccc(S(=O)(=O)N[C@H]4CC[C@H](C(=O)N5CCC[C@@H]5C(C)(C)O)CC4)cc3n2C)cc1 [Example 451, N-((1R,4r)-4-((R)-2-(2-hydroxypropan-2-yl)pyrrolidine-1-carbonyl)cyclohexyl)-2-(4-(2-methoxyethoxy)phenyl)-1-methyl-1H-indole-6-sulfonamide]
10 nM	COCCOc1ccc(-c2cc3ccc(S(=O)(=O)N[C@H]4CC[C@H](C(=O)N[C@H](C)c5ccc(F)cc5)CC4)cc3n2C)cc1 [Example 452, (1r,4R)-N-((R)-1-(4-fluorophenyl)ethyl)-4-(2-(4-(2-methoxyethoxy)phenyl)-1-methyl-1H-indole-6-sulfonamido)cyclohexanecarboxamide]
165 nM	COCCOc1ccc(-c2cc3ccc(S(=O)(=O)N[C@H]4CC[C@H](C(=O)N[C@H](C)C(F)(F)F)CC4)cc3n2C)cc1 [Example 453, (1r,4R)-4-(2-(4-(2-methoxyethoxy)phenyl)-1-methyl-1H-indole-6-sulfonamido)-N-((R)-1,1,1-trifluoropropan-2-yl)cyclohexanecarboxamide]
< 10 nM	COc1ccc(-c2cc3ccc(S(=O)(=O)N[C@H]4CC[C@H](C(=O)N5CCOC[C@@H]5C5CC5)CC4)cc3n2C)cc1 [Example 454, N-((1S,4r)-4-((S)-3-cyclopropylmorpholine-4-carbonyl)cyclohexyl)-2-(4-methoxyphenyl)-1-methyl-1H-indole-6-sulfonamide]
< 10 nM	COCc1ccc(-c2cc3ccc(S(=O)(=O)N[C@H]4CC[C@H](C(=O)N5CCOC[C@@H]5C5CC5)CC4)cc3[nH]2)cc1 [Example 455, N-((1S,4r)-4-((S)-3-cyclopropylmorpholine-4-carbonyl)cyclohexyl)-2-(4-(methoxymethyl)phenyl)-1H-indole-6-sulfonamide]
< 10 nM	COCc1ccc(-c2cc3ccc(S(=O)(=O)N[C@H]4CC[C@H](C(=O)N5CCOC[C@@H]5C5CC5)CC4)cc3n2C)cc1 [Example 456, N-((1S,4r)-4-((S)-3-cyclopropylmorpholine-4-carbonyl)cyclohexyl)-2-(4-(methoxymethyl)phenyl)-1-methyl-1H-indole-6-sulfonamide]
< 10 nM	COCCc1ccc(-c2cc3ccc(S(=O)(=O)N[C@H]4CC[C@H](C(=O)N5CCOC[C@@H]5C5CC5)CC4)cc3n2C)cc1 [Example 457, N-((1S,4r)-4-((S)-3-cyclopropylmorpholine-4-carbonyl)cyclohexyl)-2-(4-(2-methoxyethyl)phenyl)-1-methyl-1H-indole-6-sulfonamide]
< 10 nM	COCCc1ccc(-c2cc3ccc(S(=O)(=O)N[C@H]4CC[C@H](C(=O)N5CCOC[C@@H]5C(C)C)CC4)cc3[nH]2)cc1 [Example 460, N-((1S,4r)-4-((S)-3-isopropylmorpholine-4-carbonyl)cyclohexyl)-2-(4-(2-methoxyethyl)phenyl)-1H-indole-6-sulfonamide]
< 10 nM	COCCc1ccc(-c2[nH]c3cc(S(=O)(=O)N[C@H]4CC[C@H](C(=O)N5CCOC[C@@H]5C(C)C)CC4)ccc3c2Cl)cc1 [Example 461, 3-chloro-N-((1S,4r)-4-((S)-3-isopropylmorpholine-4-carbonyl)cyclohexyl)-2-(4-(2-methoxyethyl)phenyl)-1H-indole-6-sulfonamide]
